This is an account of results in article PMC9308496 (Journal of medicinal chemistry, 2021).

Data set [1] concerns the target hD2R (human D2LR) (Homo sapiens, UniProt P14416). Kind of data set: Radioligand competition binding at hD2R with [3H]-N-methylspiperone. (In general: Displacement assays read how much labelled ligand stays bound in the presence of the test substance.)
Data set [2] addresses hD3R (Homo sapiens, UniProt P35462). Kind of data set: Radioligand competition binding at hD3R with [3H]-N-methylspiperone.
For data set [3] the following is noted: dogs; cited from earlier work.
The target of data set [4] is MOR (SNAP-mMOR) (Mus musculus, UniProt P42866). Kind of data set: BRET antagonism at MOR using GPA in the presence of 100 nM DAMGO. The class given is cell-based. (In BRET a luciferase serves as donor, and the signal depends on an acceptor being close.)
Chain of MOR (SNAP-mMOR) (P42866 whole entry): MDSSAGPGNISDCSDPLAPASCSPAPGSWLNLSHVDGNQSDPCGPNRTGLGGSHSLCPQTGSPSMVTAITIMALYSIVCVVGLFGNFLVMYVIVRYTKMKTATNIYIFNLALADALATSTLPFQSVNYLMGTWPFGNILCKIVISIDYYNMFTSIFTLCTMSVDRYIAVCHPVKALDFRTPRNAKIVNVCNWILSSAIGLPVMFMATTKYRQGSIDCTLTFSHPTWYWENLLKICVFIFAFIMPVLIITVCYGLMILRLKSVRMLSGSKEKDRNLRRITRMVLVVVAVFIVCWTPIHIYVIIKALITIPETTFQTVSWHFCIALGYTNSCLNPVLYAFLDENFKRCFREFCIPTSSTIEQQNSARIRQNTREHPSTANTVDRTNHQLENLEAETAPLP

Chain of hD3R (P35462 whole entry): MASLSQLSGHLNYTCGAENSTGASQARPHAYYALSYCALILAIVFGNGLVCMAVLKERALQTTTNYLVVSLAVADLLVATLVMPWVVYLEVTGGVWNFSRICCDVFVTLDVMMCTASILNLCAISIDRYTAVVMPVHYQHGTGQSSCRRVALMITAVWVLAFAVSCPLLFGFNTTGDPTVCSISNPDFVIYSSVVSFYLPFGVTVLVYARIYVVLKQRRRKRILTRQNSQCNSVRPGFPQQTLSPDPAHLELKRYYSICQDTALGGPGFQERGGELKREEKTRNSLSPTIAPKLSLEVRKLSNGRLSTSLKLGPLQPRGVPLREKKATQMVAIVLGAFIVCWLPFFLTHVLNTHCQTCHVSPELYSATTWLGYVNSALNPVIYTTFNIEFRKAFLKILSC
Chain of hD2R (human D2LR) (P14416 whole entry): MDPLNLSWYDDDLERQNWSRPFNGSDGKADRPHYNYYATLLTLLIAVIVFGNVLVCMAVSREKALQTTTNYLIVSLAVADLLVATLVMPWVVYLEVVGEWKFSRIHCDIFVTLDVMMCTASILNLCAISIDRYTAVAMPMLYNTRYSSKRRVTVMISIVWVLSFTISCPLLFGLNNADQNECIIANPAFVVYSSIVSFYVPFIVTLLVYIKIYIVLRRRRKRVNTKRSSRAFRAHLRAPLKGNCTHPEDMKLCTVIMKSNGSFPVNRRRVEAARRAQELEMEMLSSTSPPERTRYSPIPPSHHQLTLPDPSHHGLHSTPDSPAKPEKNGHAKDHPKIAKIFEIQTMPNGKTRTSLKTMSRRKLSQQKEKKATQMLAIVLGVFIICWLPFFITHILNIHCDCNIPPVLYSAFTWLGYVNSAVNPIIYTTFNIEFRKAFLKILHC

With `CCC(=O)C(CC(C)N(C)C)(c1ccccc1)c1ccccc1` (centres unmarked) [compound 6, methadone], the “D2R Ki” value in data set [1] was “completely inactive”.
As to `O=C(NCCCCN1CC[C@]2(c3cccc(O)c3)CCC[C@H]1[C@H]2O)c1cc2ccccc2[nH]1` [compound 62, N-(4-((1S,5S,9S)-9-Hydroxy-5-(3-hydroxyphenyl)-2-azabicyclo[3.3.1]nonan-2-yl)butyl)-1H-indole-2-carboxamide], in data set [2], the inhibition constant Ki (as a rule, a measure of affinity in units of concentration, obtained from inhibition or displacement) was found to be 79.6 nM.
As to `Cc1ncoc1-c1nnc(SCCCN2C[C@@H]3C[C@]3(c3ccc(C(F)(F)F)cc3F)C2)n1C` [GSK598809], the “potentiation of hypertensive effects of cocaine” value in data set [3] was “potentiation of hypertensive effects observed in dogs produced by cocaine”.
Consider `CCOC(=O)/C=C1\[C@@H]2CCC[C@@]1(c1cccc(O)c1)CCN2CCCCNC(=O)c1cc2ccccc2[nH]1` [compound 57, trans-Ethyl (Z)-2-((1S,5S)-2-(4-(1H-indole-2-carboxamido)butyl)-5-(3-hydroxyphenyl)-2-azabicyclo[3.3.1]nonan-9-ylidene)acetate], for which, in data set [4], the IC50 (usually the midpoint of a concentration-inhibition curve) is 3520 nM.
As for `CCOC(=O)/C=C1\[C@@H]2CCC[C@@]1(c1cccc(O)c1)CCN2CCN1CCN(c2cccc(Cl)c2Cl)CC1` [compound 65, Ethyl (Z)-2-((1S,5S)-2-(2-(4-(2,3-dichlorophenyl)piperazin-1-yl)ethyl)-5-(3-hydroxyphenyl)-2-azabicyclo[3.3.1]nonan-9-ylidene)acetate], in data set [2], the Ki was 139 nM.
